Drawing on PubChem BioAssay AID463229 (Broad Institute, 2010), this text covers AC50 for 93 molecules.

Structures are written as SMILES. Several values for one entry are separate records, joined by “and”; a condition that tells them apart may be missing. Identical values can stand only once. Activity calls are given as the source filed them.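 Rule for the calls: active = compounds raising the signal whose fitted half-maximal concentration is at or below their top tested dose (cut at about 25 µM in these data); inconclusive = flat fit at 30 to 70% activity, or a poor fit; inactive = the rest.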

This assay has as its system INS-1E rat beta cells, no cytokines, CellTiter-Glo ATP, 48 h. In words: ATP level change in INS-1E without cytokines, dose response, counter-screen for beta-cell apoptosis protection project, INS-1E rat cells, ATP luminescence, cherry pick (AID 463229). For orientation: A counterscreen serves to expose hits that act by an unwanted route or on another target.
The AC50 is the midpoint of the concentration-response curve, whichever way the signal moves. Turning to `Cc1ccc(C(C)C)c(OCc2ccc(C(=O)N/N=C/c3cccc(O)c3O)cc2)c1`, the AC50 was 7.27 µM.

For `Cc1ccc(-c2sc(-c3ccccc3)nc2CC(=O)Nc2ccccc2F)cc1`, the AC50 was 2.06 µM.

For the molecule `CCc1cc(SC#N)cc(C)c1NC(=O)CCl`, the AC50 was 4.52 µM.

For the molecule `Cc1ccc(NC(=O)/C=C/c2ccc([N+](=O)[O-])s2)c(C)c1`, the concentration at half-maximal activity (AC50) was 13.1 µM.

Consider `O=C(Nc1ccc(Br)c(C(F)(F)F)c1)c1ccc(C(F)(F)F)cc1`, for which the concentration at half-maximal activity (AC50) was 7.74 µM.

`CCOc1cccc(/C=N/Nc2ccc(S(=O)(=O)N(CC)CC)cn2)c1O`: the AC50 was 3.67 µM.

For `CC(C)(C)c1ccc(C(=O)Nc2ccc(C(=O)NCc3cccnc3)cc2)cc1`, the AC50 is less than 0.195 µM.

Consider `CCN1CCN(c2c(Cl)cccc2NC(=O)c2ccc([N+](=O)[O-])o2)CC1`, for which the AC50 was 7.11 µM.

For `CS(=O)(=O)c1ncc(Cl)c(C(=O)Nc2ccc(OC(F)F)cc2)n1`, the half-maximal activity concentration (AC50) is 11.6 µM.

On to `COC(=O)c1cc(C)nc2c1C(=O)C(=O)C=C2N1CCOCC1`, for which the AC50 is 4.66 µM.

For `CCN(CC)S(=O)(=O)c1ccc(N/N=C/c2cc(OC)ccc2O)nc1`, the AC50 was 4.24 µM.

For `Fc1ccc2nc(Nc3nc4c(F)cc(F)cc4s3)sc2c1`, the concentration at half-maximal activity (AC50) is 7.69 µM.

In the case of `COc1ccc2c(c1)c(/C=N/Nc1nc3ccccc3[nH]1)c(C)n2C`, the AC50 is 14.7 µM.

Take `Cc1cc(C2CCCCC2)n(O)c(=O)c1`: the AC50 was 2.69 µM.

In the case of `CCC(C)Sc1cccc(-c2nc3ccc(C)cn3c2NCc2ccccc2)c1` (stereo not drawn), the concentration at half-maximal activity (AC50) was 9.3 µM.

On to `CC(C)c1ccccc1-n1c(SCC(=O)N2CCc3ccccc3C2)nc2ccccc2c1=O`, for which the AC50 is 2.42 µM.

For `c1ccc2c(c1)OCC(CNc1ncnc3sccc13)O2` (stereo not drawn), the AC50 was 1.6 µM.

Regarding `O=C(Nc1ccc2nc3n(c(=O)c2c1)CCCCC3)c1c(F)ccc([N+](=O)[O-])c1F`, the AC50 was 6.65 µM.

Consider `O=C1C=C(N2CCCCC2)c2ccccc2C1=O`, for which the AC50 was 10.6 µM.

As to `CCOC(=O)c1cnc(-n2nc(C)cc2C)nc1NNc1cc(C)nc(-c2ccccc2)n1`, the AC50 was 7.19 µM.

`Cc1ccc(N(CC(=O)Nc2cc(C)cc(C)c2)S(=O)(=O)c2c(C)noc2C)cc1`: the AC50 is 14.5 µM.

Take `Cc1ccc(-c2ccc(/C=C3\C(=O)ON=C3c3ccccc3)o2)c([N+](=O)[O-])c1`: the half-maximal activity concentration (AC50) is 6.77 µM.

Turning to `CC1=NNC(=O)/C1=C\c1cn(-c2ccccc2)nc1-c1cccs1`, the AC50 is 7.54 µM.

On to `COc1ccc(OCc2n(CC(=O)OC3CC(C)CCC3C(C)C)c3ccccc3[n+]2C)cc1` (stereo not drawn), for which the AC50 was 4.3 µM.

For the molecule `CCC(CO)Oc1cc(NCc2ccc(C(C)(C)C)cc2)c2ncn(C(C)C)c2c1` (stereo not drawn), the AC50 is 2.45 µM.

Take `Cc1sc2ncnc(NCC3COc4ccccc4O3)c2c1C` (stereo not drawn): the half-maximal activity concentration (AC50) was 2.34 µM.

Take `Nc1nonc1-n1nnc(C(=O)N/N=C/c2cc(Cl)ccc2O)c1CN1CCCCCC1`: the AC50 was 10.5 µM.

For `Cc1onc(-c2ccccc2)c1C(=O)NC(=S)NNC(=O)c1ccccc1O`, the AC50 was 18.4 µM.

With `Cc1cc([N+](=O)[O-])nn1Cc1ccc(C(=O)N/N=C/c2ccc(O)cc2O)cc1`, the AC50 was 6.27 µM.

As for `CCCCOc1ncnc2c1[nH]c1ccc(F)cc12`, the AC50 was 5.3 µM.

Consider `CC1(C)C[C@@H]2C[C@@](C)(CN2C(=O)c2cc(COc3cccc(C(F)(F)F)c3)on2)C1`, for which the AC50 is 17 µM.

With `COc1nnc(-c2ccc(N3CCCCC3)c(NC(=O)C3CCCCC3)c2)c2ccccc12`, the AC50 is 5.25 µM.

For the molecule `O=C1C(=O)c2ccccc2-c2ccccc21`, the AC50 is 1.01 µM.

As for `[O-][N+]1=c2ccc(Nc3ccccc3)cc2=NC12CCCCC2`, the AC50 is 12.5 µM.

On to `COc1ccc(OC)c2[nH]c(C(=O)N/N=C/c3ccccc3O)cc12`, for which the half-maximal activity concentration (AC50) was 7.58 µM.

Take `O=C(N/N=C/c1ccc(O)c2ncccc12)c1cccc(Br)c1`: the AC50 is 3.05 µM.

In the case of `Cc1ccc(-c2c[n+](Cc3ccc(Cl)cc3)c3n2CCC3)cc1`, the AC50 is 7.79 µM.

As for `CC(=O)NN1C(=O)c2ccc3c4c(ccc(c24)C1=O)C(=O)N(NC(C)=O)C3=O`, the AC50 is 3.65 µM.

As to `COc1ccc(C(C(=O)NC2CCCCC2)N(C(=O)CCl)c2cccc(Cl)c2)cc1` (stereo not drawn), the AC50 is 7.03 µM.

For the molecule `O=C(N/N=C/c1ccc(O)cc1O)/C(=C/c1ccccc1)CCO`, the AC50 is 6.54 µM.

For the molecule `CCCCC(=O)NC(c1ccccc1)c1ccc2cccnc2c1O` (stereo not drawn), the AC50 was 2.24 µM.

Turning to `COc1cccc(/C=N\NC(=O)c2ccc(Cn3cc(Br)c([N+](=O)[O-])n3)o2)c1O`, the AC50 was 7.9 µM.

For `CN(C)C1=NC[C@H](Cc2ccccc2)N1CCCC1CCCCC1`, the AC50 was 13.6 µM.

Regarding `Cc1ccc(S(=O)(=O)N2CCN(c3ncnc4ccccc34)CC2)cc1`, the AC50 was 6.28 µM.

As to `CCS(=O)(=O)c1ncc(Cl)c(C(=O)Nc2ccc(S(=O)(=O)N3CCC(C)CC3)cc2)n1`, the AC50 is 7.4 µM.

In the case of `CCCCCc1ccc(OCCCC[n+]2ccc(C)cc2)c(CCCCC)c1`, the AC50 was 2.34 µM.

For the molecule `Cc1cc(N/N=C/c2ccc(F)cc2)nc(-n2nc(C)cc2C)n1`, the AC50 was 20.1 µM.

As for `Cc1ccccc1Oc1cc(-n2ncc(Cl)c(Cl)c2=O)ncn1`, the AC50 is 3.98 µM.

For `CCOC(=O)c1sc(NC(=O)Nc2cccc(Cl)c2)cc1C`, the concentration at half-maximal activity (AC50) is 7.53 µM.

As to `CCCCCCc1ccc(N2C[C@H](Cc3ccccc3)[C@@H](CC(=O)NCc3ccc(OC)cc3)C2=O)cc1`, the AC50 was 13.6 µM.

As for `Cc1ccc(S(=O)(=O)CC2CSc3nc4ccccc4n32)cc1` (stereo not drawn), the concentration at half-maximal activity (AC50) is 6.51 µM.

For the molecule `CNc1ccc2oc(C[C@H]3O[C@@]4(CC[C@H]3C)O[C@H]([C@H](C)C(=O)c3ccc[nH]3)[C@H](C)C[C@H]4C)nc2c1C(=O)O`, the AC50 was 1.32 µM.

On to `Cc1c(C(C)C)c(=O)n(-c2ccc(S(=O)(=O)NCc3ccccc3)cc2)n1C`, for which the AC50 is 3.71 µM.

`O=C(N/N=C/c1ccccc1)c1c(O)c2ccccc2[nH]c1=O`: the AC50 is 6.58 µM.

Regarding `O=C(NCC(c1ccco1)N1CCCC1)c1ccc(Cl)c(S(=O)(=O)N2CCc3ccccc32)c1` (stereo not drawn), the half-maximal activity concentration (AC50) was 7.47 µM.

`Oc1ccc(CN2CCc3ccccc3C2)c2cccnc12`: the AC50 was 3.7 µM.

For the molecule `Cn1nnnc1Sc1ncnc2scc(-c3cc4ccccc4o3)c12`, the AC50 is 7.61 µM.

As for `Cc1ccc(-c2cn(-c3ccccc3)c3[n+]2CCCS3)cc1`, the half-maximal activity concentration (AC50) is 1.97 µM and 2.98 µM.

On to `CCCCCCCCCCOC(=O)Cn1c(COc2ccc(OC)cc2)[n+](C)c2ccccc21`, for which the AC50 was 4.96 µM and 3.95 µM.

Turning to `CC(=O)N1CCN(c2ccc(Oc3ccc([N+](=O)[O-])c(C(F)(F)F)c3)cc2)CC1`, the AC50 was 7.04 µM.

As for `CC(=O)Nc1ccc(NC2=C/C(=N/S(=O)(=O)c3cccs3)c3ccccc3C2=O)cc1`, the AC50 was 7.66 µM.

Turning to `COC(=O)[C@H](CC(C)C)N(Cc1ccccc1)S(=O)(=O)N(Cc1ccccc1)[C@@H](CC(C)C)C(=O)OC`, the AC50 was 15.5 µM.

For the molecule `COc1cnc(-c2ccccn2)nc1N(C)C`, the AC50 was 21.7 µM.

For the molecule `N#CC1=C(N)Oc2c(ccc3cccnc23)C1c1cccnc1` (stereo not drawn), the half-maximal activity concentration (AC50) is 7.5 µM.

As for `CCC(=O)N1c2ccc(S(=O)(=O)N3CCN(c4ccc([N+](=O)[O-])cc4)CC3)cc2CC1C` (stereo not drawn), the AC50 is 6.37 µM.

On to `CCC(CO)Oc1cc(NCc2ccc(C)c(C)c2)c2ncn(C(C)C)c2c1` (stereo not drawn), for which the half-maximal activity concentration (AC50) is 4.91 µM.

As for `CN(CC1CCCO1)S(=O)(=O)c1ccc(C(=O)Nc2nc(-c3ccccn3)cs2)cc1` (stereo not drawn), the AC50 is 10.4 µM.

On to `O=C(CCC(=O)Nc1ccc(Cl)cc1Cl)N/N=C/c1ccc([N+](=O)[O-])o1`, for which the AC50 was 13.8 µM.

For the molecule `Cc1nn(-c2nc3ccccc3[nH]2)c(=O)c2ccccc12`, the AC50 was 1.31 µM.

For the molecule `O=C(COc1ccc2ccccc2c1)N1CCN(Cc2c[nH]c3ccccc23)CC1`, the AC50 is 2.8 µM.

Turning to `O=C(N/N=C(\c1ccccc1)c1ccccn1)c1ccccc1Cl`, the AC50 was 6.14 µM.

In the case of `Cc1ccc(/C=N/NC(=O)c2c(-c3ccccc3)noc2C)c(O)c1`, the AC50 is 7.91 µM.

Consider `Cc1ccc(-c2c[n+](Cc3ccc(Cl)c(Cl)c3)c3n2CCC3)cc1`, for which the AC50 was 4.72 µM.

Regarding `CC(C)(C)OC(=O)NCc1ccc(NC(=O)c2nc[nH]c2C(=O)NCCCCNC(=O)c2[nH]cnc2C(=O)Nc2ccc(CNC(=O)OC(C)(C)C)cc2)cc1`, the half-maximal activity concentration (AC50) is 5.34 µM.

As to `COc1cc(C(=O)N/N=C(\C)c2ccccn2)cc(OC)c1OC`, the AC50 was 10.6 µM.

For `Cc1ccc(S(=O)(=O)/N=C2\C=C(Nc3ccc(O)cc3)C(=O)c3ccccc32)cc1`, the AC50 was 1.91 µM.

In the case of `O=C(NCc1cccnc1)c1ccc(-c2cc3ccccc3oc2=O)cc1`, the AC50 is 5.35 µM.

For the molecule `CC(Oc1cccc(Cl)c1)C(=O)Nc1cc(S(=O)(=O)N2CCOCC2)ccc1N1CCCCC1` (stereo not drawn), the AC50 was 5.68 µM.

Consider `Cc1nn(C)c(C)c1CN(C)S(=O)(=O)c1ccc2ccccc2c1`, for which the AC50 was 3.02 µM.

As to `Cc1ccc(C)c(S(=O)(=O)Nc2cc(SCC(=O)O)c(O)c3ccccc23)c1`, the AC50 is 7.19 µM.

Turning to `Clc1ccc(C(c2ccc(Cl)cc2)n2cc[n+](CC(OCc3ccc(Cl)cc3Cl)c3ccc(Cl)cc3Cl)c2)cc1` (stereo not drawn), the AC50 is 3.69 µM.

Turning to `COc1ccc(C2NCCc3c2[nH]c2ccccc32)cc1COc1ccc(F)cc1` (stereo not drawn), the AC50 was 14 µM.

In the case of `Cc1ccc(C)n1-c1ccc(C(=O)Nc2ccccc2)cc1`, the AC50 was > 26 µM (inactive).

On to `Cc1nc(C)c(-c2csc(NCCc3ccccc3)n2)s1`, for which the AC50 is 24.1 µM.

With `Cc1cccc(Nc2nc(NCc3ccco3)c3ccccc3n2)c1`, the AC50 is 8.03 µM.

For `S=C(NCCCN1CCOCC1)N1CCN(c2nc(-c3ccc(Cl)cc3)cs2)CC1`, the AC50 is 12.9 µM.

On to `C/C(=N\NC(=O)C(=O)Nc1cccc(Cl)c1)c1ccncc1`, for which the AC50 was 6.53 µM.

With `COc1cc(C(=O)Oc2ccccc2/C=N/NC(=O)c2ccc(C)c(Cl)c2)cc(OC)c1OC`, the AC50 was 12.6 µM.

For `CCOC(=O)c1cnc(-n2nc(C)cc2C)nc1NNc1nc(-c2ccccc2)cc(-c2ccccc2)n1`, the AC50 is 4.09 µM.

Consider `CCN(CC)c1ccc(/C=N/NC(=O)c2ccc3nc[nH]c3c2)c(O)c1`, for which the AC50 is 2.7 µM.

Turning to `O=C(N/N=C/c1cc(Cl)ccc1O)C(=O)Nc1ccccc1OC(F)(F)C(F)F`, the AC50 was 8.81 µM.

Turning to `COc1cc(CNC(C)c2ccccc2)cc(Br)c1OCc1ccc(F)cc1` (stereo not drawn), the AC50 was 13.8 µM.

For the molecule `CC(C)C[C@H](NC(=O)c1nc[nH]c1C(=O)N[C@@H](CC(C)C)C(=O)OC(C)(C)C)C(=O)OCc1ccccc1`, the concentration at half-maximal activity (AC50) is 14.6 µM.
